One block for each molecule: values may come before it.
Biological target: human Nav 1.8 (Homo sapiens, UniProt Q9Y5Y9)
Assay: E-VIPR assay detecting and measuring Nav inhibition properties
Type: cell-based
Settings: HEK cells expressing a truncated form of human Nav 1.8; compound numbers without "*" (not marked as run in the presence of human serum); read-out: measured IC50 value in the E-VIPR Assay
Outline: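 Nav inhibition was read by E-VIPR: cells were electrically stimulated while coumarin/oxonol FRET emissions were recorded. Cells were HEK expressing a truncated human Nav 1.8 and co-transduced with KIR2.1, and were assayed in 25% final human serum.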

human Nav 1.8, sequence (Q9Y5Y9 126-399 limits assumed): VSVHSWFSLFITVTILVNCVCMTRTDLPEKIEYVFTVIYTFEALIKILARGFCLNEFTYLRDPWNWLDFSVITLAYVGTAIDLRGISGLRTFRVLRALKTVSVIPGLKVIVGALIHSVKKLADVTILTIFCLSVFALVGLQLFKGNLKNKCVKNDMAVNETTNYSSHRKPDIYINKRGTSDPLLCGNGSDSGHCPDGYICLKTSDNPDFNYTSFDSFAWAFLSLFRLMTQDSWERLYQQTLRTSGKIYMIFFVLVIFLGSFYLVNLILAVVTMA
human Nav 1.8, sequence (Q9Y5Y9 660-890 limits assumed): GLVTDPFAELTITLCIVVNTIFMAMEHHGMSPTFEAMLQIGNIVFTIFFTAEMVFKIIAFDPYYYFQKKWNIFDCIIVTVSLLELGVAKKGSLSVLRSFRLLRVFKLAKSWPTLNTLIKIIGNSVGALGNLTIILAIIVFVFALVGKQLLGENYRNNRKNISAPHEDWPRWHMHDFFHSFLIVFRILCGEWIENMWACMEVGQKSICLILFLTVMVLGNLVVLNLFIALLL
human Nav 1.8, sequence (Q9Y5Y9 1148-1722 limits assumed): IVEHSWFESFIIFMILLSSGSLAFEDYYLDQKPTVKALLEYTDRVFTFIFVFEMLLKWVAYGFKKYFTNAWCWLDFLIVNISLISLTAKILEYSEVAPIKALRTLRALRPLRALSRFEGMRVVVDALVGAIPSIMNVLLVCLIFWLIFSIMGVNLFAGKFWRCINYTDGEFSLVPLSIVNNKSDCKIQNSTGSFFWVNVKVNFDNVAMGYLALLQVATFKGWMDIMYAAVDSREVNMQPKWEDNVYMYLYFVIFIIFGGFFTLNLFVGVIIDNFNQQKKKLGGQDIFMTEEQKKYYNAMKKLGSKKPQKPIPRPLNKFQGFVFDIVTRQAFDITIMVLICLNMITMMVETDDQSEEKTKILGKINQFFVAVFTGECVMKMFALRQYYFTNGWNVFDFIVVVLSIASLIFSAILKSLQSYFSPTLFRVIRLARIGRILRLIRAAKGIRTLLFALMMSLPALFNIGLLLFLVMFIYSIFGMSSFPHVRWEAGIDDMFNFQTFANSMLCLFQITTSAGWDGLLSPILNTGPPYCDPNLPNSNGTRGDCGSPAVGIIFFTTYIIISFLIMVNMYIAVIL

SMILES: COCC(CO)COc1c([C@H]2[C@H](C(=O)Nc3ccnc(C(N)=O)c3)O[C@@](C)(C(F)(F)F)[C@H]2C)ccc(F)c1F (stereo partly drawn) [Compound 155, 4-((2R,3S,4S,5R)-3-(3,4-difluoro-2-(3-hydroxy-2-(methoxymethyl)propoxy)phenyl)-4,5-dimethyl-5-(trifluoromethyl)tetrahydrofuran-2-carboxamido) picolinamide]
IC50: 10 to 100 nM

SMILES: CN[C@H]1CN(C(=O)c2cc(NC(=O)[C@@H]3O[C@@](C)(C(F)(F)F)[C@@H](C)[C@H]3c3ccc(F)c(F)c3OC)ccn2)C[C@@H]1OC [Compound 256, (2R,3S,4S,5R)-3-(3,4-difluoro-2-methoxyphenyl)-N-(2-((3S,4S)-3-methoxy-4-(methylamino)pyrrolidine-1-carbonyl)pyridin-4-yl)-4,5-dimethyl-5-(trifluoromethyl)tetrahydrofuran-2-carboxamide]
IC50: < 10 nM

SMILES: COc1c([C@H]2[C@H](C(=O)Nc3cc(C(=O)N4CCN(C)CC4)ncc3F)O[C@@](C)(C(F)(F)F)[C@H]2C)ccc(F)c1F [Compound 9, (2R,3S,4S,5R)-3-(3,4-difluoro-2-methoxyphenyl)-N-(5-fluoro-2-(4-methylpiperazine-1-carbonyl)pyridin-4-yl)-4,5-dimethyl-5-(trifluoromethyl)tetrahydrofuran-2-carboxamide]
IC50: < 10 nM

SMILES: CC(=O)C1CC(Oc2c([C@H]3[C@H](C(=O)Nc4ccnc(C(N)=O)c4)O[C@@](C)(C(F)(F)F)[C@H]3C)ccc(F)c2F)C1 (stereo partly drawn) [Compound 170, 4-((2R,3S,4S,5R)-3-(2-(3-acetylcyclobutoxy)-3,4-difluorophenyl)-4,5-dimethyl-5-(trifluoromethyl)tetrahydrofuran-2-carboxamido)picolinamide]
IC50: < 10 nM

SMILES: COc1c([C@H]2[C@H](C(=O)Nc3ccnc(C(=O)N4C[C@H](OC)[C@@H](N)C4)c3)O[C@@](C)(C(F)(F)F)[C@H]2C)ccc(F)c1F [Compound 262, (2R,3S,4S,5R)-N-(2-((3S,4S)-3-amino-4-methoxypyrrolidine-1-carbonyl)pyridin-4-yl)-3-(3,4-difluoro-2-methoxyphenyl)-4,5-dimethyl-5-(trifluoromethyl)tetrahydrofuran-2-carboxamide]
IC50: < 10 nM

SMILES: C[C@H]1[C@@H](c2ccc(F)c(F)c2OCC2(CO)CCC2)[C@H](C(=O)Nc2ccnc(C(N)=O)c2)O[C@@]1(C)C(F)(F)F [Compound 97, 4-((2R,3S,4S,5R)-3-(3,4-difluoro-2-((1-(hydroxymethyl)cyclobutyl)methoxy)phenyl)-4,5-dimethyl-5-(trifluoromethyl)tetrahydrofuran-2-carboxamido)picolinamide]
IC50: 10 to 100 nM

SMILES: COc1c([C@H]2[C@H](C(=O)Nc3ccnc(C(=O)N4C[C@H]5CCNC[C@H]54)c3)O[C@@](C)(C(F)(F)F)[C@H]2C)ccc(F)c1F [Compound 227, (2R,3S,4S,5R)-N-(2-((1S,6R)-3,8-diazabicyclo[4.2.0]octane-8-carbonyl)pyridin-4-yl)-3-(3,4-difluoro-2-methoxyphenyl)-4,5-dimethyl-5-(trifluoromethyl)tetrahydrofuran-2-carboxamide]
IC50: < 10 nM

Next, values leading:

IC50: < 10 nM
SMILES: C[C@H]1[C@@H](c2ccc(F)c(F)c2OCc2nccn2C)[C@H](C(=O)Nc2ccnc(C(N)=O)c2)O[C@@]1(C)C(F)(F)F [Compound 61, 4-((2R,3S,4S,5R)-3-(3,4-difluoro-2-((1-methyl-1H-imidazol-2-yl)methoxy)phenyl)-4,5-dimethyl-5-(trifluoromethyl)tetrahydrofuran-2-carboxamido)picolinamide]

IC50: 10 to 100 nM
SMILES: COc1c([C@H]2[C@H](C(=O)Nc3ccnc(C(=O)N4C[C@@H](N(C)C)[C@@H](F)C4)c3)O[C@@](C)(C(F)(F)F)[C@H]2C)ccc(F)c1F [Compound 300, (2R,3S,4S,5R)-3-(3,4-difluoro-2-methoxyphenyl)-N-(2-((3R,4S)-3-(dimethylamino)-4-fluoropyrrolidine-1-carbonyl)pyridin-4-yl)-4,5-dimethyl-5-(trifluoromethyl)tetrahydrofuran-2-carboxamide]

IC50: < 10 nM
SMILES: C[C@H]1[C@@H](c2ccc(F)c(F)c2OCc2cn[nH]c2)[C@H](C(=O)Nc2ccnc(C(N)=O)c2)O[C@@]1(C)C(F)(F)F [Compound 168, 4-((2R,3S,4S,5R)-3-(2-((1H-pyrazol-4-yl)methoxy)-3,4-difluorophenyl)-4,5-dimethyl-5-(trifluoromethyl)tetrahydrofuran-2-carboxamido)picolinamide]

IC50: < 10 nM
SMILES: COC[C@H]1CN(C(=O)c2cc(NC(=O)[C@@H]3O[C@@](C)(C(F)(F)F)[C@@H](C)[C@H]3c3ccc(F)c(F)c3OC)ccn2)CCN1C [Compound 287, (2R,3S,4S,5R)-3-(3,4-difluoro-2-methoxyphenyl)-N-(2-((R)-3-(methoxymethyl)-4-methylpiperazine-1-carbonyl)pyridin-4-yl)-4,5-dimethyl-5-(trifluoromethyl)tetrahydrofuran-2-carboxamide]

IC50: 100 to 1000 nM
SMILES: C[C@H]1[C@@H](c2ccc(F)c(F)c2OCC(CO)CO)[C@H](C(=O)Nc2ccnc(C(N)=O)c2)O[C@@]1(C)C(F)(F)F [Compound 91, 4-((2R,3S,4S,5R)-3-(3,4-difluoro-2-(3-hydroxy-2-(hydroxymethyl)propoxy)phenyl)-4,5-dimethyl-5-(trifluoromethyl)tetrahydrofuran-2-carboxamido)picolinamide]

IC50: < 10 nM
SMILES: COc1c([C@H]2[C@H](C(=O)Nc3ccnc(C(=O)N4CCC(N(C)C)C4)c3)O[C@@](C)(C(F)(F)F)[C@H]2C)ccc(F)c1F (single isomer, unassigned) [Compound 264, rel-(2R*,3S*,4S*,5R*)-3-(3,4-difluoro-2-methoxyphenyl)-N-(2-(3-(dimethylamino)pyrrolidine-1-carbonyl)pyridin-4-yl)-4,5-dimethyl-5-(trifluoromethyl)tetrahydrofuran-2-carboxamide]

IC50: 10 to 100 nM
SMILES: COc1c([C@H]2[C@H](C(=O)Nc3ccnc(C(=O)N4CCNCC4)n3)O[C@@](C)(C(F)(F)F)[C@H]2C)ccc(F)c1F [Compound 19, (2R,3S,4S,5R)-3-(3,4-difluoro-2-methoxyphenyl)-4,5-dimethyl-N-(2-(piperazine-1-carbonyl)pyrimidin-4-yl)-5-(trifluoromethyl)tetrahydrofuran-2-carboxamide]

IC50: < 10 nM
SMILES: COc1c([C@H]2[C@H](C(=O)Nc3ccnc(C(=O)N4C[C@H](N)[C@H](OC)C4)c3)O[C@@](C)(C(F)(F)F)[C@H]2C)ccc(F)c1F [Compound 257, (2R,3S,4S,5R)-N-(2-((3S,4R)-3-amino-4-methoxypyrrolidine-1-carbonyl)pyridin-4-yl)-3-(3,4-difluoro-2-methoxyphenyl)-4,5-dimethyl-5-(trifluoromethyl)tetrahydrofuran-2-carboxamide]

IC50: 10 to 100 nM
SMILES: C[C@H]1[C@@H](c2ccc(F)c(F)c2OC[C@H]2CC[C@H]2O)[C@H](C(=O)Nc2ccnc(C(N)=O)c2)O[C@@]1(C)C(F)(F)F (relative stereo) [Compound 99, rel-4-((2R*,3S*,4S*,5R*)-3-(3,4-difluoro-2-(((1R,2R)-2-hydroxycyclobutyl)methoxy)phenyl)-4,5-dimethyl-5-(trifluoromethyl)tetrahydrofuran-2-carboxamido)picolinamide]
